Assay results: patent US8431593B2, “Heteroaryl amide derivatives” (H. Lundbeck A/S, priority 2006, dated 2013)
pIC50: −log10 of the molar value. Like-named read-outs stand apart in the source and are kept apart here. Values belong to the molecule of their own block, whether it stands above or below them.

Target: T1, P2X7 receptor (Homo sapiens, UniProt Q99572)
T1 construct: host or cells: SH-SY5Y
T1 sequence (Q99572 1-595): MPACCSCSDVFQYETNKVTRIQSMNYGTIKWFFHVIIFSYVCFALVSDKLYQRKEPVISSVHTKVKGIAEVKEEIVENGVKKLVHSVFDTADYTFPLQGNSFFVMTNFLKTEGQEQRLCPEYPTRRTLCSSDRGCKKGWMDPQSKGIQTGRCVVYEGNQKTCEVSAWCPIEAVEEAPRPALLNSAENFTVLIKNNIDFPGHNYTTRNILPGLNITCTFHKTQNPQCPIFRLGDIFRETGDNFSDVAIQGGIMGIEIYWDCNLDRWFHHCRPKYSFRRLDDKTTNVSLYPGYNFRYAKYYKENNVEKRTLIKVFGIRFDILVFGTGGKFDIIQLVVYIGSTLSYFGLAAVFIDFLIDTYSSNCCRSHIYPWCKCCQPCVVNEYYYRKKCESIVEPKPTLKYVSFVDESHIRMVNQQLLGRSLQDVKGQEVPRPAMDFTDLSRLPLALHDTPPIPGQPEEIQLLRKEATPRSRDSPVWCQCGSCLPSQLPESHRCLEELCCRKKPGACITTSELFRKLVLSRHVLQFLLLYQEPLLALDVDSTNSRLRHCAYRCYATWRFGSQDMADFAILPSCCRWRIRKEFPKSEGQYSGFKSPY
Assay: P2X7 calcium mobilization assay, high throughput, antagonist activity (Example 4A)
Assay type: cell-based
In short: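 Cells plated at 100,000/well the day before were dye-loaded for 1 h, then incubated 1 h at room temperature with test compound before agonist-triggered calcium mobilization was read on FLIPR Tetra. Maximum RFU was corrected by subtracting the no-agonist control and related to the agonist-control response.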

[1] = fluorescence response of cells exposed to 80 μM 2′(3′)-O-(4-benzoyl-benzoyl)adenosine 5′-triphosphate, Example 4A, read-out: IC50
[2] = 50% decrease in the fluorescence response of cells exposed to 80 μM of 2′(3′)-O-(4-benzoyl-benzoyl)adenosine 5′-triphosphate, determined as in Example 4A, read-out: IC50
[3] = SH-SY5Y cells, 50% decrease in fluorescence response to 80 μM BzATP, read-out: IC50
[4] = 50% decrease in the fluorescence response of cells exposed to 80 μM 2′(3′)-O-(4-benzoyl-benzoyl)adenosine 5′-triphosphate, Example 4A, read-out: IC50
[5] = 50% decrease in the fluorescence response of cells exposed to 80 μM of 2′(3′)-O-(4-benzoyl-benzoyl)adenosine 5′-triphosphate, Example 4A, read-out: IC50

SMILES: CC(C)CC(CNC(=O)c1cccc2nc(CC(=O)NC(C)C(N)=O)cn12)c1ccccc1 (stereo not shown) [Compound 235, 2-{2-[(2-amino-1-methyl-2-oxoethyl)amino]-2-oxoethyl}-N-(4-methyl-2-phenylpentyl)imidazo [1,2-a]pyridine-5-carboxamide]
pIC50 [1]: > 5.70

SMILES: O=C(NCC12CC3CC(CC(C3)C1)C2)c1cccc2nc(CN3CCCC(O)C3)cn12 (stereo not shown) [Compound 135, N-(adamantan-1-ylmethyl)-2-[(3-hydroxypiperidin-1-yl)methyl]imidazo[1,2-a]pyridine-5-carboxamide]
pIC50 [3]: > 5.70

SMILES: CC(C)(CO)NC(=O)c1cn2c(C(=O)NC[C@@H]3CC[C@H]4C[C@@H]3C4(C)C)cccc2n1 [Compound 520, 5-N-{[(1S,2R,5S)-6,6-dimethylbicyclo[3.1.1]hept-2-yl]methyl}-2-N-(2-hydroxy-1,1-dimethylethyl)imidazo[1,2-a]pyridine-2,5-dicarboxamide]
pIC50: > 5.70

SMILES: CC(C)N(CCO)C(=O)c1cn2c(NC(=O)CC34CC5CC(CC(C5)C3)C4)cccc2n1 [Compound 413, 5-[(adamantan-1-ylacetyl)amino]-N-(2-hydroxyethyl)-N-isopropylimidazo[1,2-a]pyridine-2-carboxamide]
pIC50 [1]: > 5.70

SMILES: CN(CCC(C)(C)O)C(=O)Cc1cn2c(C(=O)NCC34CC5CC(CC(C5)C3)C4)cccc2n1 [Compound 58, N-(adamantan-1-ylmethyl)-2-{2-[(3-hydroxy-3-methyl-butyl)(methyl)amino]-2-oxoethyl}imidazo[1,2-a]pyridine-5-carboxamide]
pIC50 [3]: > 5.70

SMILES: COCCN(C)C(=O)c1cn2c(NC(=O)CC34CC5CC(CC(C5)C3)C4)cccc2n1 [Compound 366, 5-[(adamantan-1-ylacetyl)amino]-N-(2-methoxyethyl)-N-methylimidazo[1,2-a]pyridine-2-carboxamide]
pIC50 [1]: > 5.70

SMILES: CC1(C)CCCN(C(=O)c2cn3c(C(=O)NC[C@@H]4CC[C@H]5C[C@@H]4C5(C)C)cccc3n2)C1 [Compound 491, N-{[(1S,2R,5S)-6,6-dimethylbicyclo [3.1.1]hept-2-yl]methyl}-2-[(3,3-dimethyl-piperidin-1-yl)carbonyl]imidazo [1,2-a]pyridine-5-carboxamide]
pIC50: > 5.70

SMILES: C=Cc1cn2c(C(=O)NCC34CC5CC(CC(C5)C3)C4)cccc2n1 [Compound 278, N-(adamantan-1-ylmethyl)-2-vinylimidazo[1,2-a]pyridine-5-carboxamide]
pIC50 [1]: > 5.70

SMILES: O=C1CCN(C(=O)c2cn3c(NC(=O)CC45CC6CC(CC(C6)C4)C5)cccc3n2)CCN1 [Compound 380, 2-adamantan-1-yl-N-{2-[(5-oxo-1,4-diazepan-1-yl)carbonl]imidazo [1,2-a]pyridin-5-yl}acetamide]
pIC50 [1]: > 5.70

SMILES: O=C(Cc1cn2c(C(=O)NCC34CC5CC(CC(C5)C3)C4)cccc2n1)NN1CCOCC1 [Compound 162, N-(adamantan-1-ylmethyl)-2-[2-(morpholin-4-ylamino)-2-oxoethyl]imidazo[1,2-a]pyridine-5-carboxamide]
pIC50 [3]: > 5.70

SMILES: O=C(NCC12CC3CC(CC(C3)C1)C2)c1cccc2nc(Cn3cnc(CO)c3)cn12 [Compound 199, N-(adamantan-1-ylmethyl)-2-{[4-(hydroxymethyl)-1H-imidazol-1-yl]methyl}imidazo[1,2-a]pyridine-5-carboxamide]
pIC50 [3]: > 5.70

SMILES: CCOC(=O)Cc1nc2cccc(C(=O)NCC34CC5CC(CC(C5)C3)C4)n2c1Cl [Compound 61, {5-[(Adamantan-1-ylmethyl)-carbamoyl]-3-chloro-imidazo[1,2-a]pyridin-2-yl}-acetic acid ethyl ester]
pIC50 [3]: > 5.70

SMILES: CC(C)CC(CNC(=O)c1cccc2nc(CC(=O)N3CCCCC3)cn12)c1ccccc1 (stereo not shown) [Compound 243, N-(4-methyl-2-phenylpentyl)-2-(2-oxo-2-piperidin-1-ylethyl)imidazo[1,2-a]pyridine-5-carboxamide]
pIC50 [1]: > 5.70

SMILES: CC(C)OCCNC(=O)Cc1cn2c(C(=O)NCC34CC5CC(CC(C5)C3)C4)cccc2n1 [Compound 156, N-(adamantan-1-ylmethyl)-2-{2-[(2-isopropoxyethyl)amino]-2-oxoethyl}imidazo[1,2-a]pyridine-5-carboxamide]
pIC50 [3]: > 5.70

SMILES: CC(=O)NC1CCN(C(=O)c2cn3c(NC(=O)CC45CC6CC(CC(C6)C4)C5)cccc3n2)CC1 [Compound 408, N-{2-[(4-acetamidopiperidin-1-yl)carbonyl]imidazo[1,2-a]pyridin-5-yl}-2-adamantan-1-ylacetamide]
pIC50 [1]: > 5.70

SMILES: CCN1CCN(C(=O)Cc2cn3c(C(=O)NCC45CC6CC(CC(C6)C4)C5)cccc3n2)CC1 [Compound 169, N-(adamantan-1-ylmethyl)-2-[2-(4-ethylpiperazin-1-yl)-2-oxoethyl]imidazo[1,2-a]pyridine-5-carboxamide]
pIC50 [3]: > 5.70

Next, values leading:

pIC50 [2]: > 5.70
SMILES: O=C(NCC12CC3CC(CC(C3)C1)C2)c1cccc2nc(CSc3nnn[nH]3)cn12 [Compound 853, N-(adamantan-1-ylmethyl)-2-[(1H-tetrazol-5-ylthio)methyl] imidazo [1,2-a]pyridine-5-carboxamide]

pIC50 [2]: > 5.70
SMILES: O=C(NCC12CC3CC(CC(C3)C1)C2)c1cccc2nc(C(Cc3ccccc3Cl)C(=O)O)cn12 (stereo not shown) [Compound 844, 2-{5-[(adamantan-1-ylmethyl)carbamoyl]imidazo[1,2-a]pyridin-2-yl}-3-(2-chlorophenyl) propanoic acid]

pIC50 [1]: > 5.70
SMILES: CC(C)N(CCCO)C(=O)c1cn2c(NC(=O)CC34CC5CC(CC(C5)C3)C4)cccc2n1 [Compound 416, 5-[(adamantan-1-ylacetyl)amino]-N-(3-hydroxypropyl)-N-isopropylimidazo[1,2-a]pyridine-2-carboxamide]

pIC50 [4]: > 5.70
SMILES: COCCN(C)C(=O)c1cn2c(C(=O)NC[C@@H]3CC[C@H]4C[C@@H]3C4(C)C)cccc2n1 [Compound 466, 5-N-{[(1S,2R,5S)-6,6-dimethylbicyclo[3.1.1]hept-2-yl]methyl}-2-N-(2-methoxyethyl)-2-N-methylimidazo[1,2-a]pyridine-2,5-dicarboxamide]

pIC50 [4]: > 5.70
SMILES: CC1(C)[C@H]2CC[C@@H](CNC(=O)c3cccc4nc(C(=O)N5CCC(C(F)(F)F)CC5)cn34)[C@@H]1C2 [Compound 488]

pIC50 (P2X7 calcium mobilization, Example 4A, 50% decrease in the fluorescence response of cells exposed to 80 μM of (2′(3′)-O-(4-benzoyl-benzoyl)adenosine 5′-triphosephate), read-out: IC50): > 5.70
SMILES: CC(C)CC(CNC(=O)c1cccc2nc(CN3CCOCC3)cn12)c1ccc(C(F)(F)F)nc1 (stereo not shown) [Compound 1053, N-{4-methyl-2-[6-(trifluoromethyl)pyridin-3-yl]pentyl}-2-(morpholin-4-ylmethyl) imidazo[1,2-a]pyridine-5-carboxamide]

pIC50 [4]: > 5.70
SMILES: CO[C@H]1CCN(C(=O)c2cn3c(C(=O)NC[C@@H]4CC[C@H]5C[C@@H]4C5(C)C)cccc3n2)C1 [Compound 492, N-{[(1S,2R,5S)-6,6-dimethylbicyclo[3.1.1]hept-2-yl]methyl}-2-{[(3S)-3-methoxypyrrolidin-1-yl]carbonyl}imidazo [1,2-a]pyridine-5-carboxamide]

pIC50 [5]: > 5.70
SMILES: O=C(NCC12CC3CC(CC(C3)C1)C2)c1cccc2nc(C(Cc3ccncc3)C(=O)O)cn12 (stereo not shown) [Compound 734, 2-{5-[(adamantan-1-ylmethyl)carbamoyl]imidazo[1,2-a]pyridin-2-yl}-3-pyridia-4-ylpropanoic acid]

pIC50 [2]: > 5.70
SMILES: CC(C)CC(CNC(=O)c1cccc2nc(CC(=O)N3CCC[C@@H](NC(=O)OC(C)(C)C)C3)cn12)c1ccc(Cl)cc1 (stereo partly drawn) [Compound 928, tert-butyl {(3R)-1-[(5-{[2-(4-chlorophenyl)-4-methylpentyl]carbamoyl}imidazo[1,2-a]pyridin-2-yl)acetyl]piperidin-3-yl}carbamate]

pIC50 [5]: > 5.70
SMILES: CCN(CC)C(=O)CC(C(=O)O)c1cn2c(C(=O)NCC34CC5CC(CC(C5)C3)C4)cccc2n1 (stereo not shown) [Compound 811, 2-{5-[(adamantan-1-ylmethyl)carbamoyl]imidazo[1,2-a]pyridin-2-yl}-4-(diethylamino)-4-oxobutanoic acid]

pIC50 [5]: > 5.70
SMILES: N[C@@H]1CCN(Cc2cn3c(C(=O)NCC4(c5cccnc5)CCCCC4)cccc3n2)C1 [Compound 769, 2-[(3-aminopyrrolidin-1-yl)methyl]-N-[(1-pyridin-3-ylcyclohexyl)methyl] imidazo[1,2-a] pyridine-5-carboxamide]

pIC50 [2]: > 5.70
SMILES: CCOC(=O)C(Cc1ccccc1Cl)c1cn2c(C(=O)NCC34CC5CC(CC(C5)C3)C4)cccc2n1 (stereo not shown) [Compound 840, ethyl 2-{5-[(adamantan-1-ylmethyl)carbamoyl]imidazo[1,2-a]pyridin-2-yl}-3-(2-chlorophenyl) propanoate]
